According to patent publication US11524041B2, “Ginkgo diterpene lactone composition” (Jiangsu Kanion Pharmaceutical Co., Ltd., priority 2017, dated 2022):
Where a name gives a salt, the structure may show the parent alone.

How the values were obtained:
Format in all cases: in vivo
mice = test: Forced swimming experiment for mice; conditions: compositions 9 mg/kg ig, imipramine 50 mg/kg oral, once a day for 5 days, difference of immobility times, X ± S
Protocol: 2.2 Forced swimming experiment for mice: Male mice weighing 20-24 g were selected, grouped and administered in the same manner as in Section 2.1. The experiment was started 30 minutes after the fifth administration. The mice were placed in a graduated cylinder (20 cm in height and 14 cm in diameter) with 30° C. water in the depth of 10 cm. The difference between the two immobility times of the mice themselves were calculated and then statistical analysis was conducted after Ig (X++45) conversion.
(§1) 2.4 Statistical analysis: The data are expressed as (x±s). All data are analyzed by one-way ANOVA using SPSS 19.0 software to determine the significance of the difference.

rats = test: Electric shock avoidance experiment for rats (learned helplessness electric shock model); conditions: compositions 6.26 mg/kg ig, imipramine 33 mg/kg oral, once a day for 35 days, results of the fifth training, X ± S
Description: 2.3 Electric shock avoidance experiment for rats: The anti-depression effect of the drug was observed using a learned helplessness electric shock model. Healthy male rats weighing 180-220 g were selected and randomly divided into normal group, model group, positive drug group and Ginkgo diterpene lactone composition groups A-K, with 10 rats in each group. The rats in the […] were orally administered with the same normal saline every day; the rats in the positive drug group were orally administered with imipramine tablet in a daily dose of 33 mg/kg, and the rats in the Ginkgo diterpene lactone composition groups A-K were administered in a daily dose of 6.26 mg/kg (ig), once a day for 35 consecutive days. The experiment was started 30 minutes after the 30th administration. On the first day of the experiment, “helpless induction” was performed. […] The training was conducted for 5 days, and the number of successful escapes of each rat during training was recorded every day, and the results of the fifth training were counted.
as §1

[1] = system: level of oxidative stress of rats; test: Detection of oxidative stress in serum of rats given alcohol; conditions: rat serum, alcohol 6 g/kg daily, compositions 3 mg/kg iv, edaravone 6.25 mg/kg iv, daily for 5 weeks, n = 10
Protocol: 2.1 Modeling and administration: Healthy male rats were selected and randomly divided into normal group, model group, positive drug group and Ginkgo diterpene lactone composition groups A-K, With the exception of the normal group, the other groups were orally administrated with alcohol with a daily dose of 6 g/kg. Rats in the positive drug group were administrated with edaravone injection (iv) in a daily dose of 6.25 mg/kg, and rats in the Ginkgo diterpene lactone composition groups A-K were administrated in a daily dose of 3 mg/kg (iv), they were continuously administrated or given alcohol for 5 weeks.
2.2 Detection of oxidative stress: After the administration, rats in each group were anesthetized with 10% chloral hydrate, abdominal aortic blood was collected and then subjected to heparin anticoagulation to separate serum; changes of MDA, SOD, GSH and TAC levels in the serum were detected according to the instructions of the kits, and the protein content of each sample was measured using the BCA protein test kit.
2.3 Statistical analysis: The data are expressed as (x±s). All data are analyzed by one-way ANOVA using SPSS 19.0 software to determine the significance of the difference.

[2] = n = 10, listed as imipramine, hydrochloride

| Structure (SMILES) | Swimming interval (X + 45) conversion (mice; n = 10, hydrochloride) | Swimming interval (X + 45) conversion (mice; [2]) | Accumulative number of successful escapes (rats; n = 10, hydrochloride) | Accumulative number of successful escapes (rats; [2]) | MDA [1] [nmol/mg] | SOD [1] [U/mg] | TAC [1] [U/mg] | GSH ([1]; listed as edaravone injection) | MDA ([1]; listed as edaravone injection) | SOD ([1]; listed as edaravone injection) | TAC ([1]; listed as edaravone injection) |
| --- | --- | --- | --- | --- | --- | --- | --- | --- | --- | --- | --- |
| CN(C)CCCN1c2ccccc2CCc2ccccc21 [Imipramine, imipramine hydrochloride] | 4.03 ± 0.05^ | significantly prolonged | 24.5 ± 1.5 | significantly increased |  |  |  |  |  |  |  |
| CC1=NN(c2ccccc2)C(=O)C1 [Edaravone, edaravone] |  |  |  |  | 59.6 ± 20.6 | 769.5 ± 55.5 | 243.6 ± 0.9 | significantly corrected | significantly corrected | significantly corrected | significantly corrected |
